Values of other authors as cited in patent US9517268B2, “Process for producing inorganic particulate material” (MERCK PATENT GMBH, priority 2011, dated 2016).
Values after ≈ are worked out from the molar mass of the structure shown.

Settings: pH 7

solubility in aqueous solutions: 1 ng/mL (≈ 1.42 nM)
Compound: CCC(C)n1ncn(-c2ccc(N3CCN(c4ccc(OCC5COC(Cn6cncn6)(c6ccc(Cl)cc6Cl)O5)cc4)CC3)cc2)c1=O (stereo not shown) [Itraconazole]
